Each structure is given as a SMILES string. Several values for one entry are separate records, joined by “and”; a condition that tells them apart may be missing. Equal entries are not always repeated.

The results in this text go back to US20230293560A1, “METHOD FOR MODULATING THE BLADDER MICROBIOME TO IMPROVE BLADDER HEALTH” (Kimberly-Clark Worldwide, Inc., priority 2020, published 2023).

In assay [1] the test system is S. anginosus, KC18-1131-3B, Bladder (Sa-2). Type of assay: cell-based. Conditions: Table 6, prebiotic 2%, one line per replicate. As for the experimental part: (§1) Further testing was conducted to put the prebiotic compounds in competition assay testing, as further described in the test methods section herein. In the competition assay testing, each competition involved testing a single prebiotic compound with the commensal bacteria species of L. crispatus, KC18-1173-1, Bladder (“Lc-3”—Table 2) against the pathogenic bacterial species of S. anginosus, KC18-1131-3B, Bladder (“Sa-2”—Table 2).
(§2) • 1. An in house bacterial agar was created based on MRS agar (Kaplan and Hutkins, 2000) where the glucose is substituted for the prebiotic to be tested (either dextran MW ˜6,000, alpha-cyclodextrin, glucomannan, or pectin), bromocresol purple was included as a pH indicator. • 2. Bacteria were enumerated on each agar and color changes were recorded. Method for Competition Assay (Modified from “In Vitro Evaluation of Nutrients that Selectively Confer a Competitive Advantage to Lactobacilli” Vongsa et al, Beneficial Microbes 2016) • 1. Create 2% w/v stock of prebiotic or positive control (glucose/dextrose) as described above. • 2. From a freezer stock subculture the bacteria twice into De Man, Rogosa and Sharpe (MRS) broth (BD Difco, Becton Dickinson, Franklin Lakes, NJ), 37° C., stationary, anaerobic, overnight. • 3. From the last subculture, plate onto an MRS agar plate for L. crispatus KC18-1173-1 or blood agar for S. anginosus KC18-1131-3B, grow 37° C., stationary, anaerobic, overnight. • 4. Create a bacterial suspension by using a sterile tipped swab to transfer colonies of bacteria into a PBS suspension blank to a 2 MacFarland for both species. • 5. Enumerate the starting culture. • 6. Add 9.8 mL of prebiotic media into a 15 mL conical tube. • 7. Add 100 μL of the diluted bacteria to the media, incubate at 37° C., anaerobic, 48 hours. • 8. Harvest 100 μL from the tube containing the prebiotic and plate onto MRS agar and tryptic soy agar (TSA). • 9. Enumerate the bacteria on the MRS agar (both the L. crispatus and the S. anginosus). Small colonies are counted as S. anginosus and large colonies are counted as L. crispatus. • 10. Enumerate the bacteria on the TSA plate. […] Growth of the bacteria in the negative control (CHL media without prebiotic) was subtracted from the growth in the presence of the prebiotic or formulation.

The subject of a further assay is L. jensenii. The assay can be described thus: High throughput assay screening of prebiotics. Type of assay: cell-based, Lactobacillus jensenii. More on the design: key: ++: if growth and fermentation was equal to or greater than the positive control; +: if growth and fermentation was less than the positive control; +: if weak or no growth or fermentation; +^2: Bacteria demonstrated growth but no fermentation on the prebiotic. Conditions: 2% w/v prebiotic in API 50 CHL media. The protocol:
Most of the prebiotic compounds were initially tested in a high throughput assay screening process, described further in the Test Methods section herein, but three prebiotics (as noted in Table 3) were tested using a plate assay screening process as described in the Test Methods section herein. The prebiotics were tested against the commensal bacterial species of Lactobacillus crispatus, Lactobacillus gasseri, and Lactobacillus jensenii and against the pathogenic bacterial species of Streptococcus anginosus and Enterococcus faecalis as shown in Table 2. The bacterial species were taken from different sources, listed as culture collection, bladder, and vagina.
The results of the assay plate screening of the prebiotic compounds of Table 1 against the bacterial species of Table 2 is documented in Table 3 with the results being described by the following legend: • ++ if growth and fermentation was equal to or greater than the positive control • + if growth and fermentation was less than the positive control • […] if weak or no growth or fermentation • NT if not tested Some codes were not tested based on the use or non-use by the bacteria, as a way to efficiently move through the assay plate screening to the competition assay, described below.
• 1. Create a 2% w/v stock of prebiotic or positive control (glucose/dextrose) to be tested in API 50 CHL media (Biomerieux, Marcy-I'Étoile, France). API 50 CHL media contains minimal amounts of carbon for growth, and a bromocresol purple as a pH indicator of fermentation. Filter sterilize media with a […]. Store at 4-6° C. until use. • 2. Add 180 μL of media containing the prebiotic to a sterile, flat bottom 96-well microtiter plate (Corning, Corning, NY). • 3. From a freezer stock subculture the bacteria twice into De Man, Rogosa and Sharpe (MRS) broth (BD Difco, Becton Dickinson, Franklin Lakes, NJ), 37° C., stationary, anaerobic, overnight. • 4. From the last subculture, plate onto an MRS agar plate (Teknova, Hollister, CA) and grow 37° C., stationary, anaerobic, overnight. • 5. Create a bacterial suspension by using a sterile tipped swab to transfer colonies of bacteria into a PBS suspension blank to a 0.5 MacFarland (S. anginosus or E. faecalis) or a 1 MacFarland (Lactobacillus species) from the MRS agar plate. • 6. Enumerate the starting culture. • 7. Inoculate the media alone and media containing the prebiotic or positive control with 20 μL of the bacterial suspension. • 8. Place the plate into a spectrophotometer (Molecular Devices, San Jose, CA) and read the plate every 20 minutes for 24-48 hours. Read wavelengths (OD 430, OD 590, and OD 660). A color change to yellow caused by a drop in pH will be read by an increase in the OD430 value and a decrease in the OD590 value and is indicative of bacterial fermentation. An increase in OD660 values is indicative of an increase in turbidity and bacterial growth.

The subject of assay [2] is commensal and pathogenic bacterial species. In words: Prebiotic screening, summary in words across species. Type of assay: cell-based. Conditions: commensal (L. crispatus, L. gasseri, L. jensenii) and pathogenic (S. anginosus, E. faecalis) species. In short, it runs like this: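 Prebiotics at 2% w/v stock in API 50 CHL medium with bromocresol purple, inoculated with bacteria and read every 20 min for 24-48 h at OD430/590 (fermentation) and OD660 (growth), scored against a glucose control. Some tested on MRS-based agar with the prebiotic in place of glucose; competition assay with L. crispatus and S. anginosus incubated 48 h anaerobically at 37 °C, then enumerated on MRS and TSA.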

For assay [3], the system named is L. crispatus, KC18-1173-1, Bladder (Lc-3). The assay can be described thus: Competition assay, L. crispatus recovered. Conditions: Table 6, prebiotic 2%, one line per replicate. Type of assay: cell-based, Lactobacillus crispatus. As for the experimental part:
as §1, §2

[4] abbreviates: change vs start, background growth in CHL media subtracted, MRS agar.

For the molecule `CO[C@H]1O[C@H](CO)[C@@H](O)[C@H](O)[C@H]1O` [Alpha-Methyl-D-Glucoside], the “Sa-2 MRS Δ” value in assay [1] (setting [4]) is 0.45 Log CFU/mL and 0.55 Log CFU/mL. Besides, the “Sa-2 TSA Δ” value in assay [1] (change vs start, background growth in CHL media subtracted, TSA) is 0.62 Log CFU/mL and 0.41 Log CFU/mL. Further, the “Sa-2 MRS end” value in assay [1] (competition Sa-2 vs Lc-3, 48 hours, anaerobic, enumerated on MRS agar) was 7.15 Log CFU/mL and 7.40 Log CFU/mL. Besides, the “Sa-2 TSA end” value in assay [1] (competition Sa-2 vs Lc-3, 48 hours, enumerated on TSA) was 7.47 Log CFU/mL and 7.54 Log CFU/mL. In addition, the “growth and fermentation vs positive control, Lj-2” value in the assay on L. jensenii (L. jensenii KC17-4347-1, Bladder) is recorded as “+”. Moreover, the “overall outcome of the screening of Table 3, in words” value in assay [2] was “growing at least some of the commensal bacterial species and either having less growth than the positive control or almost no growth of the pathogenic bacterial species”. The “Lc-3 MRS Δ” value in assay [3] (setting [4]) is 1.39 Log CFU/mL and 0.70 Log CFU/mL. Further, the “Lc-3 MRS end” value in assay [3] (competition Sa-2 vs Lc-3, 48 hours, enumerated on MRS agar) was 6.52 Log CFU/mL and 6.78 Log CFU/mL.

With `OC[C@H]1O[C@H](OC[C@H]2OC(O)(CO)[C@@H](O)[C@@H]2O)[C@H](O)[C@@H](O)[C@@H]1O` (stereo partly shown) [Palatinose (isomaltulose), isomaltulose], the “growth and fermentation vs positive control, Lj-1” value with L. jensenii (L. jensenii KC17-4297-18, Bladder) is on record as “+”. Further, the “overall outcome of the screening of Table 3, in words” value in assay [2] is “growing at least some of the commensal bacterial species and either having less growth than the positive control or almost no growth of the pathogenic bacterial species”.
